Calls of active or inactive are those of the source. The calls are words filed in the database; no cut-off is given here.
Each compound was assayed on U-251 (assay: Induction of apoptosis in human U-251 cells assessed as increase in accumulation of cells at sub-G1 phase at 0.1 uM measured after 72 hrs by propidium iodide staining based flow cytometry). Conditions: not given.
Type: functional, cell-based
In the case of `COc1cccc2c1C(=O)c1c(O)c3c(c(O)c1C2=O)C[C@@](O)(C(=O)CO)C[C@@H]3O[C@H]1C[C@H](N)[C@H](O)[C@H](C)O1` [DOXORUBICIN], the Activity is reported as “Active”.

What follows are compounds tested on U-251 (assay: Induction of cell cycle arrest in human U-251 cells assessed as accumulation at S phase at 1 uM measured after 72 hrs by propidium iodide staining based flow cytometry). Conditions: not given.
Type: functional
With `O=C(/C=C/c1ccccc1)O[C@H](c1ccccc1)[C@@H]1O[C@@H]2CC(=O)O[C@@H]2[C@@H]1O` the Activity was “inactive”.
For `O=C1C[C@H]2O[C@@H](CI)[C@@H](O)[C@H]2O1`, the Activity was “inactive”.

What follows are compounds tested on U-251 (assay: Induction of cell cycle arrest in human U-251 cells assessed as accumulation at G2/M phase at 1 uM measured after 72 hrs by propidium iodide staining based flow cytometry). Conditions: not given.
Type: functional
In the case of `O=C(/C=C/c1ccccc1)O[C@H](c1ccccc1)[C@@H]1O[C@@H]2CC(=O)O[C@@H]2[C@@H]1O`, the Activity is reported as “inactive”.
`O=C1C[C@H]2O[C@@H](CI)[C@@H](O)[C@H]2O1` was tested, and the Activity was “inactive”.

The compounds below were run on U-251 (assay: Antiproliferative activity against human U-251 cells assessed as reduction in cell viability at 0.1 to 250 uM measured after 72 hrs by MTT assay). Conditions: dose 0.1-250 µM.
Type: functional, cell-based
`O=C1C[C@H]2O[C@@H](CO)[C@@H](O)[C@H]2O1` was tested, and the Activity was “inactive”.
In the case of `O=C1C[C@H]2O[C@@H]([C@H](O)c3ccccc3)[C@@H](O)[C@H]2O1`, the Activity is reported as “inactive”.
In the case of `O=C1C[C@H]2O[C@@H]([C@@H](O)c3ccccc3)[C@@H](O)[C@H]2O1`, the Activity is reported as “inactive”.
In the case of `O=C1C[C@H]2O[C@H](CO)[C@@H](O)[C@H]2O1`, the Activity is reported as “inactive”.
In the case of `O=C1C[C@H]2O[C@H](CO)[C@@H](OCc3ccccc3)[C@H]2O1`, the Activity is reported as “inactive”.
For `O=C1C[C@H]2O[C@@H](CO)[C@@H](OCc3ccccc3)[C@H]2O1`, the Activity was “inactive”.

The compounds below were run on Daoy (assay: Antiproliferative activity against human Daoy cells assessed as reduction in cell viability at 0.1 to 250 uM measured after 72 hrs by MTT assay). Conditions: dose 0.1-250 µM.
Type: functional, cell-based
In the case of `O=C1C[C@H]2O[C@@H](CO)[C@@H](O)[C@H]2O1`, the Activity is reported as “inactive”.
For `O=C1C[C@H]2O[C@@H]([C@H](O)c3ccccc3)[C@@H](O)[C@H]2O1`, the Activity was “inactive”.
With `O=C1C[C@H]2O[C@@H]([C@@H](O)c3ccccc3)[C@@H](O)[C@H]2O1` the Activity was “inactive”.
For `O=C1C[C@H]2O[C@H](CO)[C@@H](O)[C@H]2O1`, the Activity was “inactive”.
With `O=C1C[C@H]2O[C@H](CO)[C@@H](OCc3ccccc3)[C@H]2O1` the Activity was “inactive”.
With `O=C1C[C@H]2O[C@@H](CO)[C@@H](OCc3ccccc3)[C@H]2O1` the Activity was “inactive”.

What follows are compounds tested on MDA-MB-231 (assay: Antiproliferative activity against human MDA-MB-231 cells assessed as reduction in cell viability at 0.1 to 250 uM measured after 72 hrs by MTT assay). Conditions: dose 0.1-250 µM.
Type: functional, cell-based
For `O=C1C[C@H]2O[C@@H](CO)[C@@H](O)[C@H]2O1`, the Activity was “inactive”.
`O=C1C[C@H]2O[C@@H]([C@H](O)c3ccccc3)[C@@H](O)[C@H]2O1` was tested, and the Activity was “inactive”.
With `O=C1C[C@H]2O[C@@H]([C@@H](O)c3ccccc3)[C@@H](O)[C@H]2O1` the Activity was “inactive”.
`O=C1C[C@H]2O[C@H](CO)[C@@H](O)[C@H]2O1` was tested, and the Activity was “inactive”.
In the case of `O=C1C[C@H]2O[C@H](CO)[C@@H](OCc3ccccc3)[C@H]2O1`, the Activity is reported as “inactive”.
For `O=C1C[C@H]2O[C@@H](CO)[C@@H](OCc3ccccc3)[C@H]2O1`, the Activity was “inactive”.

The compounds below were run on U-251 (assay: Induction of cell cycle arrest in human U-251 cells assessed as increase in accumulation of cells at G1 phase at 0.1 uM measured after 72 hrs by propidium iodide staining based flow cytometry). Conditions: not given.
Type: functional
For `COc1cccc2c1C(=O)c1c(O)c3c(c(O)c1C2=O)C[C@@](O)(C(=O)CO)C[C@@H]3O[C@H]1C[C@H](N)[C@H](O)[C@H](C)O1` [DOXORUBICIN], the Activity was “Active”.

The compounds below were run on U-87 MG (assay: Antiproliferative activity against human U87 cells assessed as reduction in cell viability at 0.1 to 250 uM measured after 72 hrs by MTT assay). Conditions: U-87MG ATCC, dose 0.1-250 µM.
Type: functional, cell-based
With `O=C1C[C@H]2O[C@@H](CO)[C@@H](O)[C@H]2O1` the Activity was “inactive”.
With `O=C1C[C@H]2O[C@@H]([C@H](O)c3ccccc3)[C@@H](O)[C@H]2O1` the Activity was “inactive”.
In the case of `O=C1C[C@H]2O[C@@H]([C@@H](O)c3ccccc3)[C@@H](O)[C@H]2O1`, the Activity is reported as “inactive”.
With `O=C1C[C@H]2O[C@H](CO)[C@@H](O)[C@H]2O1` the Activity was “inactive”.
For `O=C1C[C@H]2O[C@H](CO)[C@@H](OCc3ccccc3)[C@H]2O1`, the Activity was “inactive”.
`O=C1C[C@H]2O[C@@H](CO)[C@@H](OCc3ccccc3)[C@H]2O1` was tested, and the Activity was “inactive”.

These compounds were tested on U-87 MG (assay: Antiproliferative activity against human U87 cells assessed as reduction in cell viability measured after 72 hrs by MTT assay). Conditions: not given.
Type: functional, cell-based, U-87MG ATCC
`O=C(/C=C/c1ccccc1)O[C@H](c1ccccc1)[C@@H]1O[C@@H]2CC(=O)O[C@@H]2[C@@H]1O` gave an IC50 of 32.4 µM.
For `O=C1C[C@H]2O[C@@H](CI)[C@@H](O)[C@H]2O1`, the IC50 was 7.61 µM.
`COc1cccc2c1C(=O)c1c(O)c3c(c(O)c1C2=O)C[C@@](O)(C(=O)CO)C[C@@H]3O[C@H]1C[C@H](N)[C@H](O)[C@H](C)O1` [DOXORUBICIN] showed an IC50 of 0.186 µM.

The compounds below were run on MDA-MB-231 (assay: Antiproliferative activity against human MDA-MB-231 cells assessed as reduction in cell viability measured after 72 hrs by MTT assay). Conditions: MDA-MB-231, 72 h.
Type: functional, cell-based
In the case of `O=C(/C=C/c1ccccc1)O[C@H](c1ccccc1)[C@@H]1O[C@@H]2CC(=O)O[C@@H]2[C@@H]1O`, the IC50 is reported as 535 µM.
`COc1cccc2c1C(=O)c1c(O)c3c(c(O)c1C2=O)C[C@@](O)(C(=O)CO)C[C@@H]3O[C@H]1C[C@H](N)[C@H](O)[C@H](C)O1` [DOXORUBICIN] showed an IC50 of 0.482 µM.

These compounds were tested on Daoy (assay: Antiproliferative activity against human Daoy cells assessed as reduction in cell viability measured after 72 hrs by MTT assay). Conditions: not given.
Type: functional, cell-based
In the case of `O=C(/C=C/c1ccccc1)O[C@H](c1ccccc1)[C@@H]1O[C@@H]2CC(=O)O[C@@H]2[C@@H]1O`, the IC50 is reported as 612 µM.
`O=C1C[C@H]2O[C@@H](CI)[C@@H](O)[C@H]2O1` showed an IC50 of 141 µM.
`COc1cccc2c1C(=O)c1c(O)c3c(c(O)c1C2=O)C[C@@](O)(C(=O)CO)C[C@@H]3O[C@H]1C[C@H](N)[C@H](O)[C@H](C)O1` [DOXORUBICIN] showed an IC50 of 0.0629 µM.

What follows are compounds tested on U-251 (assay: Induction of cell cycle arrest in human U-251 cells assessed as accumulation at G1 phase at 1 uM measured after 72 hrs by propidium iodide staining based flow cytometry). Conditions: not given.
Type: functional
For `O=C(/C=C/c1ccccc1)O[C@H](c1ccccc1)[C@@H]1O[C@@H]2CC(=O)O[C@@H]2[C@@H]1O`, the Activity was “inactive”.
In the case of `O=C1C[C@H]2O[C@@H](CI)[C@@H](O)[C@H]2O1`, the Activity is reported as “inactive”.

These compounds were tested on U-251 (assay: Antiproliferative activity against human U-251 cells assessed as reduction in cell viability measured after 72 hrs by MTT assay). Conditions: U-251, 72 h.
Type: functional, cell-based
In the case of `O=C(/C=C/c1ccccc1)O[C@H](c1ccccc1)[C@@H]1O[C@@H]2CC(=O)O[C@@H]2[C@@H]1O`, the IC50 is reported as 1.34 µM.
In the case of `O=C1C[C@H]2O[C@@H](CI)[C@@H](O)[C@H]2O1`, the IC50 is reported as 529 µM.
`COc1cccc2c1C(=O)c1c(O)c3c(c(O)c1C2=O)C[C@@](O)(C(=O)CO)C[C@@H]3O[C@H]1C[C@H](N)[C@H](O)[C@H](C)O1` [DOXORUBICIN] gave an IC50 of 0.106 µM.
